Data on 4 compounds can be found in patent publication US20040167226A1, “Methods for the treatment of pain and traumatic injury using benzamides and compositions containing the same” (priority 2002, published 2004).

As a reminder, the melting point is the temperature, or range, at which the solid turns liquid. Broadly, the AUC(0-inf) is the area under the concentration-time curve extrapolated to infinity. By Cmax is commonly meant the highest concentration seen after dosing. Usually Tmax stands for the time at which the peak concentration occurs.

Data set [1] can be described thus: PK parameter estimates, 30 mg/kg po in 1% methyl cellulose. It is filed as in vivo, rats. The following applies: rat, plasma, rats, 30 mg/kg po in 1% methyl cellulose, n = 3. An excerpt:
The time course of plasma concentration of compound N is depicted in FIG. 1 as well.

The test system of data set [2] is Taxol-induced mechanical allodynia. In words: Taxol-induced neuropathic pain rat model, 50% paw withdrawal threshold (up-down method). It is filed as in vivo, Sprague-Dawley rats. The following applies: rats, 50 mg/kg p.o. in 1% methylcellulose (positive control). An excerpt: Sprague-Dawley male rats with 150-160 grams of body weight were used in the studies presented herein. Rats were trained in the enclosure one hour per day in the morning for a one week period prior to obtaining the baseline response. Whereas the mouse studies assessed percentage of response, the rat studies determined 50% of the paw withdrawal threshold, also called the up-down method as developed by Chung and colleagues. In order to obtain consistent data, naïve rats with paw withdrawal threshold no less than 4 grams were included for further studies. Taxol at a dose of 1 mg/kg (body weight) was administered daily to rats intraperitoneally. As observed in mice, the rats treated with Taxol daily developed stable mechanical allodynia on day 9 and thereafter. On day 13 and day 14 of Taxol induction, the rats pain behavior in term of 50% of paw withdrawal threshold was measured. Only those rats with paw withdrawal threshold measurements no greater than 7 grams for two consecutive days were included for drug testing. Generally speaking, the mechanical allodynia in Taxol treated rats fell in the range of 1-4 gram of paw withdrawal threshold.
1 ml per kg of body weight of either 50 mg/ml or 20 mg/ml of Compound A was administered to rats via oral gavage feeding (p.o.), to yield a dose of either 50 mg/Kg (body weight) or 20 mg/Kg (body weight). The same corresponding volume of 1% methylcellulose was used as vehicle control. 34 male Sprague-Dawely rats were employed for the study. The baseline paw withdrawal threshold (grams of force applied to the plantar area of the right hind paw) and neuropathic pain induction with daily intraperitoneal administration of 1 mg/kg (body weight) was performed as indicated in the previous section. The Taxol treatment was continued for 15 days until the pain threshold remained relatively stable. Animals with baseline greater than 4 grams and with threshold […] post induction were included in the drug testing. 27 rats met the criteria for the next step studies and were randomly assigned into four groups. Group 1 consisting of 7 rats was given 1% methylcellulose as vehicle control group, 1 ml of vehicle per kilograms of body weight was administered to animal via p.o.; group 2 with 6 animals was dosed at 20 mg/kg (body weight) of Compound A via oral gavage feeding (p.o.); group 3 with 7 rats was dosed at 50 mg/kg of Compound A, and the fourth group with 7 rats received Gabapentine at 50 mg/kg via p.o. in the same vehicle as a positive control group. Those rats were habituated in the enclosure and 50% of paw withdrawal thresholds (grams of force) were measured using a set of von Frey filaments, as described in the previous section, at time points of 1, 2, 3, 6, and 24 hours postdosing in a blinded fashion. The tester had no knowledge of which animals received drug or vehicle. It was noted that rats tested were very sleepy in the late afternoon (for 6 hour postdosing measurement), thus the data would not be reliable for 6-hour postdosing time points. […] After finishing the 24 hour postdosing measurement, the paw withdrawal threshold of each animal was calculated and data was analyzed.

For the compound `CC(=O)Nc1cccc(C(=O)NC(C)(C)C)c1` [Compound D, N-tert-butyl-3-acetamidobenzamide], the melting point was in the range of 194 to 195 °C.
Consider `CC(C)(C)NC(=O)c1cccc([N+](=O)[O-])c1` [Compound G, N-tert-butyl-3-nitrobenzamide], for which the melting point is 123 to 125 °C.
Take `CC(C)(C)NC(=O)c1ccc(N)cc1` [Compound N, N-tert-butyl-4-aminobenzamide]: the melting point lay in the range of 125 to 127 °C. In data set [1], the AUC(0-inf) is 1030 µg·h/mL, the highest concentration (Cmax) is 5400 ng/mL and the Tmax is 0.5 h. Besides, in data set [1] (read-out: Elim.t1/2 (converted)), the half-life was 355 h.
As to `NCC1(CC(=O)O)CCCCC1` [Gabapentine, reference compound], the “time of peak analgesic effect postdosing” value in data set [2] lay within 3 to 6 h.
